From US10640497B2, “Microbiocidal oxadiazole derivatives” (SYNGENTA PARTICIPATIONS AG, priority 2015, dated 2020) come the findings set out here.

The subject of series [1] is Glomerella lagenarium (Colletotrichum lagenarium). Put plainly: Fungicidal activity against Glomerella lagenarium (Colletotrichum lagenarium), liquid culture, cucumber, preventative (anthracnose). In kind it is cell-based. As to conditions: Colletotrichum orbiculare, liquid culture (PDB), growth inhibition measured photometrically 3-4 days after application, compared to untreated control. A digest of the protocol: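 Glomerella lagenarium conidia in potato dextrose broth were exposed in 96-well plates to test compound diluted from DMSO stock with 0.025% Tween20 and incubated at 24 °C. Growth inhibition was read photometrically 3–4 days after application, as percent activity relative to untreated check.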

A further series concerns Phakopsora pachyrhizi. Nature of the series: Fungicidal activity against Phakopsora pachyrhizi, soybean, leaf disc preventative (Asian soybean rust). In kind it is in vivo. As to conditions: foliar, 288 h, 12-14 days after application, compared to untreated control. In short, it runs like this: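 Soybean leaf discs on water agar were sprayed with compound diluted in water, then inoculated one day later with a spore suspension on the lower leaf surface. After 24-36 h dark at 20 °C, 75% rh, discs were held at 20 °C, 12 h light/day. Percent disease control versus untreated assessed 12-14 days post-application.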

Series [2] has as its system Puccinia recondita f. sp. tritici. Put plainly: Fungicidal activity against Puccinia recondita f. sp. tritici, wheat, leaf disc curative (brown rust). As to conditions: foliar, 144 h, wheat leaf segments, curative (applied 1 day after inoculation), 6-8 days after application, compared to untreated control. The series is classed as in vivo. In short, it runs like this:
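Wheat cv. Kanzler leaf segments on agar, inoculated with brown rust spores and kept dark at 19 °C, 75% rh; formulated compound sprayed 1 day after inoculation (curative). Incubated 19 °C, 75% rh, 12 h light/dark; percent disease control vs untreated scored 6–8 days after application.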

The test system is the same in series [3]. Put plainly: Fungicidal activity against Puccinia recondita f. sp. tritici, wheat, leaf disc preventative (brown rust). As to conditions: foliar, wheat leaf segments, preventative (inoculated 1 day after application), 7-9 days after application, compared to untreated control. The series is classed as in vivo. A digest of the protocol: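 Wheat cv. Kanzler leaf segments on water agar sprayed with compound (DMSO stock diluted in water), then inoculated with spore suspension 1 day later. Incubated at 19 °C, 75% rh, 12 h light/12 h dark; percent disease control versus untreated scored at 7-9 days after application.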

For orientation: inhibition of growth means the percentage by which the read-out fell short of the control. High values mean a response far below the control, low ones a response near the control. As usually defined, the pest or weed control is how far the test organism was held down. Broadly, the melting point is the temperature, or range, at which the solid turns liquid. Take `O=C1CCON1c1ccc(-c2noc(C(F)(F)F)n2)cc1` [Compound C-2, 2-[4-[5-(trifluoromethyl)-1,2,4-oxadiazol-3-yl]phenyl]isoxazolidin-3-one]: the melting point is 74 to 77 °C. The same molecule had an inhibition of growth at 20 ppm in series [1] of no less than 80%. This molecule also came in with a pest or weed control at 200 ppm with Phakopsora pachyrhizi of no less than 80%. The molecule also returned a pest or weed control at 200 ppm in series [2] of no less than 80%. The molecule further returned a pest or weed control at 200 ppm in series [3] of no less than 80%.
